The target in data set [1] is T1, Serine/threonine-protein kinase 3 (Homo sapiens) (UniProt Q13188).
T1 sequence (whole entry): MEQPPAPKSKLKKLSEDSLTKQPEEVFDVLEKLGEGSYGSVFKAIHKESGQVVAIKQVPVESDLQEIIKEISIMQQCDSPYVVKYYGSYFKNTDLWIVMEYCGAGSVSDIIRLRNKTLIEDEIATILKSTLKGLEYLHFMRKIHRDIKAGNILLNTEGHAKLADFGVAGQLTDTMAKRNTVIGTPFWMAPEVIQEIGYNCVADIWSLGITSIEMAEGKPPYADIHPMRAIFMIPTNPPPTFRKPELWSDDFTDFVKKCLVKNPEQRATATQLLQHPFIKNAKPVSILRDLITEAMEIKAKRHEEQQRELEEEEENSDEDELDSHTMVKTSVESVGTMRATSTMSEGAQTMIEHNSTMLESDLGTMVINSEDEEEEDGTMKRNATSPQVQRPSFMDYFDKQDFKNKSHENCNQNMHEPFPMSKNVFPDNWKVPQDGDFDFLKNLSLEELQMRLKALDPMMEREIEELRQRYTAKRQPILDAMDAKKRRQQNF
As to conditions: dose 10.0 µM.
Description: Binding affinity to recombinant MST2 (unknown origin) kinase domain assessed as thermal stabilization by measuring change in melting temperature at 10 uM by DSF analysis

The target in data set [2] is T2, Serine/threonine-protein kinase 24 (Homo sapiens, UniProt Q9Y6E0). As to conditions: dose 10.0 µM.
Target sequence in this assay (Q9Y6E0 whole entry, looked up, the tested form may be a part): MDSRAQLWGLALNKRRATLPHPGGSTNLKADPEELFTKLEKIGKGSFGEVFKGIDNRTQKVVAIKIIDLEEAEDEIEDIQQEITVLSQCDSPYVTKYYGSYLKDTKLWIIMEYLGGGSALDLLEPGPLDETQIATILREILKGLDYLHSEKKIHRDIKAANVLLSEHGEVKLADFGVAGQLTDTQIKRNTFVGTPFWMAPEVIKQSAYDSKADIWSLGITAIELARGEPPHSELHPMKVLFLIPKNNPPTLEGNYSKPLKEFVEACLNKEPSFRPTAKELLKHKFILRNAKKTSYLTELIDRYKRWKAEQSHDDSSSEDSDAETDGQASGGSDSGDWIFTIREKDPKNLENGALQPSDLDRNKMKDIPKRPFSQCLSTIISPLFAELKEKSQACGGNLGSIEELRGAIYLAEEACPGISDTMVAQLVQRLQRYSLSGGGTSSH
Description: Binding affinity to recombinant MST3 (unknown origin) kinase domain assessed as thermal stabilization by measuring change in melting temperature at 10 uM by DSF analysis
For data set [3], the target named is T3, LIM domain kinase 1 (Homo sapiens, UniProt P53667). Kind of data set: Inhibition of wildtype LIMK1 (unknown origin) assessed as residual activity at 1 uM relative to control.
Target sequence in this assay (P53667 whole entry, looked up, the tested form may be a part): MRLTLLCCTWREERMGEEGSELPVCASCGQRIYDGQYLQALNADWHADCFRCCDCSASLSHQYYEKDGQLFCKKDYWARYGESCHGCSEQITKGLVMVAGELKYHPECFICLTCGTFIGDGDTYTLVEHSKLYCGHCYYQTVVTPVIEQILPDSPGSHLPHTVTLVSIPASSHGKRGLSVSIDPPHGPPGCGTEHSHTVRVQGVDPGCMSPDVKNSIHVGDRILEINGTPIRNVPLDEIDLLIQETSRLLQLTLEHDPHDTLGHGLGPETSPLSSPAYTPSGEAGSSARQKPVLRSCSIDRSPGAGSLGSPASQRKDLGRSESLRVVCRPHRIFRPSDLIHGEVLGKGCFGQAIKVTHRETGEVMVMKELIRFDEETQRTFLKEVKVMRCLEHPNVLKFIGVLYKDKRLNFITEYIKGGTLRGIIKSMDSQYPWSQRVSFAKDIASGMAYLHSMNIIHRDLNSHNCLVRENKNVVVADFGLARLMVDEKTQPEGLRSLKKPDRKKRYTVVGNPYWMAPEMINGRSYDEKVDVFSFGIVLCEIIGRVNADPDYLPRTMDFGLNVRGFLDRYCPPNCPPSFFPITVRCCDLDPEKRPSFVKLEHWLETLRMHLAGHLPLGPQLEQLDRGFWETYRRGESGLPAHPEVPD
Data set [4] addresses T4, Serine/threonine-protein kinase 3 (Homo sapiens, UniProt Q13188).
T4 sequence (Q13188 whole entry): T1 sequence (whole entry)
In words: Binding affinity to N-terminal full length human MST2 expressed in intact HEK293T cells incubated for 2 hrs by NanoBRET assay. The format is cell-based.

The target of data set [5] is T5, Serine/threonine-protein kinase 4 (Homo sapiens) (UniProt Q13043).
T5 sequence (whole entry): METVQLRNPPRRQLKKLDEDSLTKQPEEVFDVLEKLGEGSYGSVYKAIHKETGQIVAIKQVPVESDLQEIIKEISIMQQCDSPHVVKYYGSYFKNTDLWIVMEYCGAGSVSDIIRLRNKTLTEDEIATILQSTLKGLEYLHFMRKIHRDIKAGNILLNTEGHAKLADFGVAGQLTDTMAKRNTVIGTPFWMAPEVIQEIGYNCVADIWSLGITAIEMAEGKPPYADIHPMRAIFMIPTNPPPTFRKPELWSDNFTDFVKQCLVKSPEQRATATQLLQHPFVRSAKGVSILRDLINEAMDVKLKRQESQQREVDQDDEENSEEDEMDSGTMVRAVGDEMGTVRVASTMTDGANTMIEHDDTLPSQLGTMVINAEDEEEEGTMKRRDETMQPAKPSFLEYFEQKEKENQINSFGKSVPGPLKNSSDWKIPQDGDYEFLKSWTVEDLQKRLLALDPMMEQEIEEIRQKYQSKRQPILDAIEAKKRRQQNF
The conditions noted are these: dose 10.0 µM.
Description: Binding affinity to recombinant MST1 (unknown origin) kinase domain assessed as thermal stabilization by measuring change in melting temperature at 10 uM by DSF analysis

The target in data set [6] is T2, Serine/threonine-protein kinase 24. Kind of data set: Binding affinity to C-terminal full length human MST3 expressed in intact HEK293T cells incubated for 2 hrs by NanoBRET assay. The format is cell-based.
Target sequence in this assay (Q9Y6E0 whole entry, the tested form may be a part): as the sequence (Q9Y6E0 whole entry, looked up, the tested form may be a part) above
Data set [7] deals with T6, Serine/threonine-protein kinase 26 (Homo sapiens, UniProt Q9P289). As to conditions: dose 10.0 µM.
Target sequence in this assay (Q9P289 2-416 limits assumed): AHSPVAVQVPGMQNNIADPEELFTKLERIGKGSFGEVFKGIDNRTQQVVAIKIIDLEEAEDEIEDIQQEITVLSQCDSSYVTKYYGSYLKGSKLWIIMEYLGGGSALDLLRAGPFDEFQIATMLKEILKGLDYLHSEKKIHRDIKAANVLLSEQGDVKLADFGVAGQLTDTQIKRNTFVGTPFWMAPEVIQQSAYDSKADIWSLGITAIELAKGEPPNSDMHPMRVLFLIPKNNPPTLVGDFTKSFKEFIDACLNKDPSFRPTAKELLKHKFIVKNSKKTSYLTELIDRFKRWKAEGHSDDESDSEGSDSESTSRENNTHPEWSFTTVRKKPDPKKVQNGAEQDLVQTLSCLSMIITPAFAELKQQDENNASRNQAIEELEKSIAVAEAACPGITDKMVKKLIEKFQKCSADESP
Description: Binding affinity to recombinant MST4 (unknown origin) kinase domain assessed as thermal stabilization by measuring change in melting temperature at 10 uM by DSF analysis
Data set [8] addresses Dual specificity protein kinase CLK1 (Homo sapiens) (UniProt P49759). In words: Binding affinity to CLK1 (unknown origin) assessed as thermal stabilization by measuring change in melting temperature by DSF analysis. Background: Differential scanning fluorimetry follows unfolding on heating by fluorescence.
Data set [9] concerns HCT-116. In words: Cell cycle arrest in human HCT-116 cells expressing […] assessed as G1 phase cells at 1 uM incubated for 72 hrs by Hoechst33342 staining based analysis (reference value: 52%). The format is functional.
Data set [10] is described as follows: Toxicity in human HCT-116 cells expressing FUCCI assessed as reduction in cell viability at 1 uM measured after 48 hrs by Hoechst33342 staining based analysis. As to conditions: hct-116, 48 h.
Data set [11] in a line: Toxicity in human HCT-116 cells expressing FUCCI assessed as reduction in normalized cell count at 10 uM measured upto 80 hrs by Hoechst33342 staining based analysis. The conditions noted are these: hct-116, 80 h.
Data set [12] addresses T7, Serine/threonine-protein kinase 4 (Homo sapiens, UniProt Q13043).
T7 sequence (Q13043 whole entry): T5 sequence (whole entry)
Kind of data set: Binding affinity to N-terminal full length human MST1 expressed in intact HEK293T cells incubated for 2 hrs by NanoBRET assay. The format is cell-based. A general note: In BRET a luciferase serves as donor, and the signal depends on an acceptor being close.

In data set [13] the target is T6, Serine/threonine-protein kinase 26. Kind of data set: Binding affinity to C-terminal full length human MST4 expressed in intact HEK293T cells incubated for 2 hrs by NanoBRET assay. The format is cell-based.
Target sequence in this assay (Q9P289 whole entry): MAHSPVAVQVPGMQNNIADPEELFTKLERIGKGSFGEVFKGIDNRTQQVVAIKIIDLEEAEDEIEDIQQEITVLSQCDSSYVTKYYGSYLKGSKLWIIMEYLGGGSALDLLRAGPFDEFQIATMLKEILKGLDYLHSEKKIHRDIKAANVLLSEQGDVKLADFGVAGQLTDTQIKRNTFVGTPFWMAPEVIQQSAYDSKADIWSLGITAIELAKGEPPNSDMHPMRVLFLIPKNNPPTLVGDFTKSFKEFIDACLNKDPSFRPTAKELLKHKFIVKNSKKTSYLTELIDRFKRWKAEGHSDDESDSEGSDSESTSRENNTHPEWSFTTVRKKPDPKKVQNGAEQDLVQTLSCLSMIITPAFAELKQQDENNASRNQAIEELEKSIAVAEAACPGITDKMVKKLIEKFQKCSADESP
Data set [14] relates to HCT-116. Kind of data set: Cell cycle arrest in human HCT-116 cells expressing […] assessed as S phase cells at 10 uM incubated for 72 hrs by Hoechst33342 staining based analysis relative to control. The format is functional.
Data set [15] addresses T2, Serine/threonine-protein kinase 24. In words: Binding affinity to C-terminal full length human MST3 expressed in permeabilized HEK293T cells incubated for 2 hrs by NanoBRET assay. The format is cell-based.
Target sequence in this assay (Q9Y6E0 whole entry, the tested form may be a part): as the sequence (Q9Y6E0 whole entry, looked up, the tested form may be a part) above
The target of data set [16] is Glycogen synthase kinase-3 beta (Homo sapiens) (UniProt P49841). Kind of data set: Binding affinity to GSK3B (unknown origin) assessed as thermal stabilization by measuring change in melting temperature by DSF analysis.
The target in data set [17] is T3, LIM domain kinase 1. In words: Binding affinity to LIMK1 (unknown origin) expressed in permeabilized HEK293T cells incubated for 2 hrs by NanoBRET assay. The format is cell-based.
Target sequence in this assay (P53667 whole entry, the tested form may be a part): as the sequence (P53667 whole entry, looked up, the tested form may be a part) above
For data set [18], the target named is LIM domain kinase 2 (Homo sapiens, UniProt P53671). In words: Binding affinity to LIMK2 (unknown origin) expressed in permeabilized HEK293T cells incubated for 2 hrs by NanoBRET assay. The format is cell-based.
For data set [19], the target named is Maternal embryonic leucine zipper kinase (Homo sapiens) (UniProt Q14680). In words: Binding affinity to MELK (unknown origin) assessed as thermal stabilization by measuring change in melting temperature by DSF analysis.
The target in data set [20] is T6, Serine/threonine-protein kinase 26. Kind of data set: Binding affinity to N-terminal 6His-tagged TEV fused MST4 (unknown origin) expressed in Escherichia coli BL21 (DE3) cells assessed as offset in binding entropy change by ITC analysis. A general note: In ITC the heat of successive injections is recorded.
Target sequence in this assay (Q9P289 2-416 limits assumed): as the sequence (Q9P289 2-416 limits assumed) above
Data set [21] concerns the target T8, Aurora kinase A (Homo sapiens) (UniProt O14965).
T8 sequence (whole entry): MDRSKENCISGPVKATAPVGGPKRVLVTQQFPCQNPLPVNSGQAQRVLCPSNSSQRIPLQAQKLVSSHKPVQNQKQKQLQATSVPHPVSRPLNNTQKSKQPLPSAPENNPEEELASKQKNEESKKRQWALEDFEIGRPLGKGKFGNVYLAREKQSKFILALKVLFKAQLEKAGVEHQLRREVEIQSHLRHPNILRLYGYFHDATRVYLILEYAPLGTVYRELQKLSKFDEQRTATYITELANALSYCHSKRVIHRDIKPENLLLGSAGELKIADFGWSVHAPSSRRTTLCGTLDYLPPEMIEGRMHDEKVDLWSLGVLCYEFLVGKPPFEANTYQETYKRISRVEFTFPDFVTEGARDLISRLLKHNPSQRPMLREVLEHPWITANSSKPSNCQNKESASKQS
In words: Binding affinity to STK6 (unknown origin) assessed as thermal stabilization by measuring change in melting temperature by DSF analysis.

Drawing on ChEMBL document CHEMBL5532666 (J Med Chem, 2024), this text covers ΔTm, Activity and EC50 for one compound.

As a reminder, the ΔTm is the shift of the melting midpoint relative to a reference. For orientation: EC50 means the concentration that produces a half-maximal response. A lower EC50 goes with a more potent agent.

Calls of active or inactive are those of the source. The calls are words filed in the database; no cut-off is given here.

Glycogen synthase kinase-3 beta (Homo sapiens), sequence (P49841 whole entry, looked up, the tested form may be a part): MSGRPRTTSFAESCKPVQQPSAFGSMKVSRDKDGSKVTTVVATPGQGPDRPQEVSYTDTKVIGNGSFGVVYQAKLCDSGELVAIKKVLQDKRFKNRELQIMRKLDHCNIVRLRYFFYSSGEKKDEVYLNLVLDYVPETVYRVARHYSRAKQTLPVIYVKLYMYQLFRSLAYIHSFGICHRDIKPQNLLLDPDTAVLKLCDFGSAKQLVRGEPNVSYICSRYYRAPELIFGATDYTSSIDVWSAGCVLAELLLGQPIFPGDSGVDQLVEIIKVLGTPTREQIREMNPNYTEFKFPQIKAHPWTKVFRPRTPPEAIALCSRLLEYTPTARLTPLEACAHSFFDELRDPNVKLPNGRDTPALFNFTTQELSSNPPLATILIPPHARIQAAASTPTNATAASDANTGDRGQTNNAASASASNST
Maternal embryonic leucine zipper kinase (Homo sapiens), sequence (Q14680 whole entry, looked up, the tested form may be a part): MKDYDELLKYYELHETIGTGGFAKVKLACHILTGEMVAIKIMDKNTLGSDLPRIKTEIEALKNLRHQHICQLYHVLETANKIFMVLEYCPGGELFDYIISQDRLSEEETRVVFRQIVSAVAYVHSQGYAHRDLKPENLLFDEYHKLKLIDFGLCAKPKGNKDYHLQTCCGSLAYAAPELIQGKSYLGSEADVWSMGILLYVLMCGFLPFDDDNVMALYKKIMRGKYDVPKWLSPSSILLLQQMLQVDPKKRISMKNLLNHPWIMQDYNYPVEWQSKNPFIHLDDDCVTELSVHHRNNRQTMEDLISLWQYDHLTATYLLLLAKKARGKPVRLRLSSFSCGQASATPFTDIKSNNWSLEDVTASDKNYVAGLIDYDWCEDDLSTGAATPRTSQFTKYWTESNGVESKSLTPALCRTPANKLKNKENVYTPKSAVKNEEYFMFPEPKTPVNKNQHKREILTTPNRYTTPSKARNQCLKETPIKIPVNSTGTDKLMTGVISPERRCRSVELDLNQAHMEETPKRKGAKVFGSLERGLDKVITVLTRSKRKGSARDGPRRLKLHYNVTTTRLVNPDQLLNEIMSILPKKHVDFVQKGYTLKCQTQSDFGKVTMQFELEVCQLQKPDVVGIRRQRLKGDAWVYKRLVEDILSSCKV
Dual specificity protein kinase CLK1 (Homo sapiens), sequence (P49759 whole entry, looked up): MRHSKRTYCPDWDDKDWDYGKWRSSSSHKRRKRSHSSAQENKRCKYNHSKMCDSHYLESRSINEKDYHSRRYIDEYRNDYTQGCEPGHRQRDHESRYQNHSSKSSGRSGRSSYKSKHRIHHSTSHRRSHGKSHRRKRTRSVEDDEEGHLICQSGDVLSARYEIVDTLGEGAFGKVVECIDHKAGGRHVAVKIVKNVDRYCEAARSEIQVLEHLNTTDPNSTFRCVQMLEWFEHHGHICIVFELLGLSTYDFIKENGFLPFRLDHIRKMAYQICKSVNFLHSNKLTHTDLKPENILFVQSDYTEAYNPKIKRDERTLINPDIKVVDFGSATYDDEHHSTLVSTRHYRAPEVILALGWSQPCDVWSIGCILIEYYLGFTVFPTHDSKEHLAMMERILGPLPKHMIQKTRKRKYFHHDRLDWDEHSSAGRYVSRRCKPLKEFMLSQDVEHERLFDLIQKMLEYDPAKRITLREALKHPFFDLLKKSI
LIM domain kinase 2, sequence (P53671 whole entry, the tested form may be a part): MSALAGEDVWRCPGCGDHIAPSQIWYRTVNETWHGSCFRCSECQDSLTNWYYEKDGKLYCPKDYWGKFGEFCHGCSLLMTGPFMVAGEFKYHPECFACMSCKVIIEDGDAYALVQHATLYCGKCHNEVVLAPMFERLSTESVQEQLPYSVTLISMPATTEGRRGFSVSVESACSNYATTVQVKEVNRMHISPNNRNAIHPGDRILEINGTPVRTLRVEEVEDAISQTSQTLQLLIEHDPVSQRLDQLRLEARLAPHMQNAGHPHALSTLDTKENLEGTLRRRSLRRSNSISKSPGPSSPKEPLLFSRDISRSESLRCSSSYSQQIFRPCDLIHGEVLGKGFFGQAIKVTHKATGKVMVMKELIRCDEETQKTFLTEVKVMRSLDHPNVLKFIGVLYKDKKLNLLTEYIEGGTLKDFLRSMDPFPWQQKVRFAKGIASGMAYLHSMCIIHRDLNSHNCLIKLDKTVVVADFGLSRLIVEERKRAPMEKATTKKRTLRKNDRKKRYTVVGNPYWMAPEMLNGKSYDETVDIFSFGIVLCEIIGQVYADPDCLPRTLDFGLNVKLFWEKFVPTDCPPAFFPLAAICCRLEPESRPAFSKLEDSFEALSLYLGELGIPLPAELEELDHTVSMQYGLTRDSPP

`O=C1NCCCCCNc2nc(c3ccccc3n2)Nc2cc1[nH]n2`: the ΔTm in [1] worked out at 1.1 °C; in data set [2], 7.5 °C; in data set [5], 1.4 °C; in data set [7], 7.4 °C; in [8] it was 5.1 °C; in [16], 5.1 °C. Further, the shift in melting temperature (ΔTm) in data set [19] and in [21] was 5.1 °C in each case. The Activity is 36.6% in data set [3]; 57% in data set [9]; “Non-Toxic” in [10]; “Toxic” in data set [11]; 27% in data set [14]. Further, the concentration giving a half-maximal response (EC50) was > 50 µM in [4]; 0.11 µM in data set [6]; > 50 µM in data set [12]; 1.43 µM in [13]; 0.08 µM in data set [15]; 2.48 µM in [17]. The compound further came in with an EC50 in data set [18] of 1 µM. The result in [20] was Active.
